{"source": "patent US20210254056A1", "about": "“IDENTIFICATION AND TARGETED MODULATION OF GENE SIGNALING NETWORKS” (CAMP4 THERAPEUTICS CORPORATION, priority 2017, published 2021)", "system": "hepatocytes", "assay": "RNA-seq of hepatocytes treated with Phase III failure compounds", "conditions": "for significant modulation of expression of disease genes: q≤0.05, genes in the value or listed in the block", "experimental": "RNA-seq was performed to determine the effects of the compounds on hepatocytes.\nSignificance was determined by the criteria of FPKM≥0.5, a log 2(fold-change)≥1, and a […].", "note": "Read-outs that look alike come from different tables or passages of the source."}
{"molecule": "COc1cccc2c1C(=O)c1c(O)c3c(c(O)c1C2=O)C[C@@](O)(/C(CO)=N/NC(=O)CCCCCN1C(=O)C=CC1=O)C[C@@H]3O[C@H]1C[C@H](N)[C@H](O)[C@H](C)O1", "note": "[INNO-206 (aldoxorubicin), aldoxorubicin]", "values": [{"measurement": "Number (#) of genes having significantly changed expression", "result": 1944}, {"measurement": "significant modulation of expression of disease genes", "setting": "RNA-seq, hepatocytes", "result": "significantly (q≤0.05) modulate expression"}, {"measurement": "B2M expression, RNA-seq result", "setting": "gene B2M, hepatocytes", "result": 0.38}, {"measurement": "B9D2 expression, RNA-seq result", "setting": "gene B9D2, hepatocytes", "result": 0.04}, {"measurement": "BAAT expression, RNA-seq result", "setting": "gene BAAT, hepatocytes", "result": "−1.32"}, {"measurement": "BBOX1 expression, RNA-seq result", "setting": "gene BBOX1, hepatocytes", "result": "−1.19"}, {"measurement": "BBS10 expression, RNA-seq result", "setting": "gene BBS10, hepatocytes", "result": "−0.06"}, {"measurement": "BCHE expression, RNA-seq result", "setting": "gene BCHE, hepatocytes", "result": "−0.69"}, {"measurement": "BCKDHB expression, RNA-seq result", "setting": "gene BCKDHB, hepatocytes", "result": 0}, {"measurement": "BCKDK expression, RNA-seq result", "setting": "gene BCKDK, hepatocytes", "result": "−0.91"}, {"measurement": "BCO1 expression, RNA-seq result", "setting": "gene BCO1, hepatocytes", "result": "−0.28"}, {"measurement": "BCR expression, RNA-seq result", "setting": "gene BCR, hepatocytes", "result": "−0.83"}, {"measurement": "BLNK expression, RNA-seq result", "setting": "gene BLNK, hepatocytes", "result": 1.32}, {"measurement": "BLOC1S3 expression, RNA-seq result", "setting": "gene BLOC1S3, hepatocytes", "result": "−0.26"}, {"measurement": "BMPR1A expression, RNA-seq result", "setting": "gene BMPR1A, hepatocytes", "result": "−0.33"}, {"measurement": "BRAF expression, RNA-seq result", "setting": "gene BRAF, hepatocytes", "result": "−0.34"}, {"measurement": "BSCL2 expression, RNA-seq result", "setting": "gene BSCL2, hepatocytes", "result": 0.84}, {"measurement": "BTD expression, RNA-seq result", "setting": "gene BTD, hepatocytes", "result": "−0.48"}, {"measurement": "C4A expression, RNA-seq result", "setting": "gene C4A, hepatocytes", "result": 0.4}, {"measurement": "C9 expression, RNA-seq result", "setting": "gene C9, hepatocytes", "result": 1.1}, {"measurement": "C10orf10 expression, RNA-seq result", "setting": "gene C10orf10, hepatocytes", "result": 1.26}, {"measurement": "C10orf11 expression, RNA-seq result", "setting": "gene C10orf11, hepatocytes", "result": "−1.44"}, {"measurement": "C15orf41 expression, RNA-seq result", "setting": "gene C15orf41, hepatocytes", "result": "−1.28"}, {"measurement": "CA2 expression, RNA-seq result", "setting": "gene CA2, hepatocytes", "result": 1.36}, {"measurement": "CA5A expression, RNA-seq result", "setting": "gene CA5A, hepatocytes", "result": "−0.64"}, {"measurement": "CA12 expression, RNA-seq result", "setting": "gene CA12, hepatocytes", "result": 0.43}, {"measurement": "CAV1 expression, RNA-seq result", "setting": "gene CAV1, hepatocytes", "result": 0.02}, {"measurement": "CCND1 expression, RNA-seq result", "setting": "gene CCND1, hepatocytes", "result": 0.26}, {"measurement": "CD46 expression, RNA-seq result", "setting": "gene CD46, hepatocytes", "result": 1.34}, {"measurement": "CD81 expression, RNA-seq result", "setting": "gene CD81, hepatocytes", "result": 0.46}, {"measurement": "CD320 expression, RNA-seq result", "setting": "gene CD320, hepatocytes", "result": "−0.9"}, {"measurement": "CDAN1 expression, RNA-seq result", "setting": "gene CDAN1, hepatocytes", "result": "−0.23"}, {"measurement": "CDH1 expression, RNA-seq result", "setting": "gene CDH1, hepatocytes", "result": "−0.12"}, {"measurement": "CEP19 expression, RNA-seq result", "setting": "gene CEP19, hepatocytes", "result": 0.44}, {"measurement": "CEP83 expression, RNA-seq result", "setting": "gene CEP83, hepatocytes", "result": "−1.24"}, {"measurement": "CEP164 expression, RNA-seq result", "setting": "gene CEP164, hepatocytes", "result": 1.34}, {"measurement": "CEP290 expression, RNA-seq result", "setting": "gene CEP290, hepatocytes", "result": "−1.26"}, {"measurement": "CFB expression, RNA-seq result", "setting": "gene CFB, hepatocytes", "result": 0.72}, {"measurement": "CFHR2 expression, RNA-seq result", "setting": "gene CFHR2, hepatocytes", "result": 1.2}, {"measurement": "CHRM3 expression, RNA-seq result", "setting": "gene CHRM3, hepatocytes", "result": "−0.08"}, {"measurement": "CIDEC expression, RNA-seq result", "setting": "gene CIDEC, hepatocytes", "result": "−0.39"}, {"measurement": "CLDN1 expression, RNA-seq result", "setting": "gene CLDN1, hepatocytes", "result": "−0.93"}, {"measurement": "COG1 expression, RNA-seq result", "setting": "gene COG1, hepatocytes", "result": 0.38}]}
{"molecule": "CCC(CC)CC1(C(=O)Nc2ccccc2SC(=O)C(C)C)CCCCC1", "note": "[Dalcetrapib]", "values": [{"measurement": "Number (#) of genes having significantly changed expression", "setting": "RNA-seq, Phase III failure compounds, hepatocytes, significance: FPKM≥0.5, log 2(fold-change)≥1, q-value≥0.05 (so in the source)", "result": 43}, {"measurement": "significant modulation of expression of disease genes", "setting": "RNA-seq, hepatocytes", "result": "significantly (q≤0.05) modulate expression of CYP3A4 and GOSH"}, {"measurement": "effect on disease gene expression", "setting": "RNA-seq, hepatocytes", "result": "no effect on any disease gene"}]}
